Patent US20030114482A1, “Use of retinoid receptor antagonists or agonists in the treatment of cartilage and bone pathologies” (priority 1999, published 2003)

Experiments:
[1] = system: RARE/β-galactosidase reporter construct in F9 teratocarcinoma cell line; test: F9 teratocarcinoma RARE/β-galactosidase reporter bioassay; type: cell-based
Protocol: The β-gal assay consists of an F9 teratocarcinoma cell line stably transfected with a reporter construct which contains a 64 bp retinoic acid-response element (RARE) from the promoter region of the human RARβ gene (Ellis et al., Nature 343, 377-381 (1990)) placed immediately upstream of the E. coli lacZ gene. […] Cells were maintained on gelatin-coated dishes in modified L15 CO2 tissue culture medium (Specialty Media, Lavallette, N.J.) supplemented with 20% fetal calf serum and 0.8 mg/ml G418 (complete medium), and were used when 80-90% confluent.
To prepare tissue extracts, tissues were surgically isolated from Day 10 chick embryos and included. The metaphyseal-diaphyseal portion of cartilaginous humerus and tibia from which adherent perichondral tissues were carefully removed, liver, brain, gizzard and heart. During isolation, all tissues were kept in saline on ice under yellow safety light conditions to protect the retinoids. […]
Briefly, cultures were fixed with 0.1% glutaraldehyde in 0.1 M phosphate buffer pH 7.0 for 15 min at room temperature. […] After rinsing again, cultures were extracted with 0.2 ml of DMSO and absorbance of the extracted material was determined at 655 nm using a Perkin-Elmer spectrophotometer. […]

RARγ [2] = target: T1, RARγ (Homo sapiens, UniProt P13631); settings: cited from earlier work
T1 sequence (P13631 1-454): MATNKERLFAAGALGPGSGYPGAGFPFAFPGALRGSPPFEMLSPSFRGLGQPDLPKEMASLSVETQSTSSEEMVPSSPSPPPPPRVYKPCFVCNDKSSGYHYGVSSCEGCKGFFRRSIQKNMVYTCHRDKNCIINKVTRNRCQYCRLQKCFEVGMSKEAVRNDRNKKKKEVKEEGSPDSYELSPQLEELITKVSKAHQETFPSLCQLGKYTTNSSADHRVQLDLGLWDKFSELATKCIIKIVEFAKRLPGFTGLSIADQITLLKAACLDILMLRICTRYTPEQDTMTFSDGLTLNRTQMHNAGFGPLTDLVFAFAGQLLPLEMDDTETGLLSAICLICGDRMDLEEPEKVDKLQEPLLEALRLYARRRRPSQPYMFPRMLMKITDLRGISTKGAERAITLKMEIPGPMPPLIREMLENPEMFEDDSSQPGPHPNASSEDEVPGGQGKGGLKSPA

[3] = system: humerus development (chondrocyte maturation, endochondral ossification); test: Antagonist-filled bead implantation in chick embryo wing bud, humerus development; type: in vivo
Protocol: This procedure was carried out as described previously (Noji et al., Acta Histochem. Cytochem. 23, 353-366 (1990); Koyama et al., Dev. Dynam. 203, 152-162 (1995)). Briefly, chick embryos or embryo parts were fixed with 4% paraformaldehyde for 4 hr or overnight, embedded in paraffin and sectioned. The 5 μm thick sections were pretreated with 1 μg/ml proteinase K (Sigma, St. Louis, Mo.) in 50 mM Tris, 5 mM EDTA, pH 7.5 at room temperature for 1 min, immediately postfixed in 4% paraformaldehyde buffer for 10 min, and then washed twice in PBS containing 2 mg/ml glycine for 10 min/wash. Sections were treated for 15 min with a freshly prepared solution of 0.25% acetic anhydride in triethanolamine buffer. Sections were hybridized with ^35S-labeled antisense or sense chick cDNA riboprobes (approximately 1×10^6 DPM/section) at 50° C. for 16 hr. After hybridization, slides were washed three times with 2×SSC containing 50% formamide at 50° C. for 20 min/wash, treated with 20 μg/ml RNaseA for 30 min at 37° C., and finally washed three times with 0.1×SSC at 50° C. for 10 min/wash. Sections were coated with Kodak NTB3 emulsion diluted 1:1 with water, exposed for 7 days, and developed with Kodak D19 for 3 min at 20° C. After staining with hematoxylin and eosin, slides were analyzed with a Nikon microscope using bright and dark field optics.
This range of concentrations was based on previous studies (see, for example, Lu et al., Development 124, 1643-1651 (1997)). Antagonist solutions were prepared in DMSO and used under yellow light conditions; control beads were soaked in DMSO alone. Beads were then dipped very briefly in phenol red-containing saline (HBSS) so that they were more readily visible during implantation.
Antagonist-containing or control beads were implanted in the wing bud of stage 21-22 (Day 3-3.5) or stage 27-28 (Day 5.5) chick embryos (Hamburger and Hamilton, J. Morphol. 88, 49-92 (1951)); contralateral wing bud served as control. A small window was opened in the egg shell and a small incision was made on the antero-dorsal proximal portion of the bud. One bead or several beads were then placed in the vicinity of the prospective humerus as specified below, and eggs were sealed and returned to the incubator. On the day of analysis, embryos were sacrificed by decapitation, and control and operated wings were examined by microscopy, using a Nikon SMZ-U dissecting photomicroscope, and humerus length was measured micrometrically. Because length of control humeri varied slightly from embryo to embryo, possibly reflecting slight differences in age, humeri were considered affected by antagonist treatment only if their length was shortened at least 25% over control value. Companion control and antagonist-treated limbs were processed for histology and in situ hybridization using tissue sections.
Having shown that RAR gene expression changes during chondrocyte maturation and that the cartilaginous elements as well as their surrounding perichondrial tissues contain endogenous retinoids, experiments were carried out to determine what roles the RARs and their ligands may play during chondrocyte maturation and skeletogenesis (see Example I, Antagonist Treatment). To approach this question, a bead containing retinoid antagonists was implanted in the vicinity of the prospective humeral mesenchymal condensation in stage 21-22 (Day 3-3.5) chick embryos and determined whether humerus development had been impaired by Day 10 in vivo.

RARγ [4] = target: T1, RARγ; test: RAR antagonism, IC50 for RARγ (literature); type: biochemical
RARa, β and γ = settings: cited from earlier work
[5] = system: cephalic core sternal chondrocytes; test: Cultured cephalic core sternal chondrocytes, alkaline phosphatase and type X collagen gene expression; type: cell-based, chick
Protocol: (§1) Cell populations rich in prehypertrophic and early hypertrophic chondrocytes were isolated from the cephalic core region of Day 17-18 chick embryo sterna, while immature chondrocytes were isolated from the caudal sternal region (Gibson and Flint, J. Cell Biol. 101, 277-284 (1985); Pacifici et al., Exp. Cell Res. 195, 38-46 (1991); Iwamoto et al., Exp. Cell Res. 207, 413-420 (1993b)). The dissected cephalic and caudal tissues were incubated for 1 hr at 37° C. in saline containing 0.1% type 1-S collagenase (Sigma Chemical Co., St. Louis, Mo.); the cells released after this incubation were discarded as they consisted mainly of perichondrial and blood cells. The remaining tissue was incubated in a fresh mixture of 0.25% trypsin and 0.1% collagenase for 3 hr at which point it was completely digested. The freshly isolated chondrocytes were plated at a density of 2×10^5 cells/well in 12-well plates, 1×10^6 cells/60 mm dish or 3×10^6 cells/100 mm dish. The cephalic core chondrocytes were grown continuously, without subculturing, for 2 to 3 weeks in monolayer. During the first 2 days, cultures received 4 U/ml of testicular hyaluronidase to minimize cell detachment (Leboy et al., J. Biol. Chem. 264, 17281-17286 (1989)), and cultures became confluent by 2 weeks. The caudal immature chondrocytes were first grown for 5 days at which point floating immature chondrocytes were separated from attached contaminating fibroblastic cells. The floating cells were trypsinized and replated in secondary cultures in the presence of hyaluronidase to increase cell attachment. Cultures were fed every other day with Dulbecco's modified high-glucose Eagle's medium (GIBCO BRL, Gaithersburg, Md.) containing 10% defined fetal calf serum (Hyclone, Logan, Utah), 2 mM L-glutamine, and 50 U/ml penicillin and streptomycin (Pacifici et al., Exp. Cell Res. 195, 38-46 (1991)). When indicated, cultures were treated with all-trans-RA (Sigma) or combinations of all-trans-RA and Ro 41-5253. Stock solutions of these retinoids were prepared in DMSO and were diluted into working solutions in 95% ethanol; control dishes received an equivalent amount of vehicle without retinoids. To analyze mineralization, cephalic sternal control and retinoid-treated cultures were supplemented with 3 mM β-glycerophosphate to serve as a phosphate source. During these various regimens, medium was changed daily. To localize calcium deposits, the cell layers were stained with 0.5% alizarin red S solution, pH 4.0, for 5 min at room temperature. In experiments in which cultures were treated for 2, 4 or 6 days, retinoid treatments were initiated so that all cultures (including control cultures) were harvested simultaneously. […]

[6] = system: cephalic core sternal chondrocytes; test: Mineralization of cultured cephalic core sternal chondrocytes, alizarin red staining; type: cell-based, chick; settings: 6 days
Protocol: as §1, with “41-5253.” for “41-5253. Stock solutions of these retinoids were prepared in DMSO and were diluted into working solutions in 95% ethanol; control dishes received an equivalent amount of vehicle without retinoids. To analyze mineralization, cephalic sternal control and retinoid-treated cultures were supplemented with 3 mM β-glycerophosphate to serve as a phosphate source. During these various regimens, medium was changed daily. To localize calcium deposits, the cell layers were stained with 0.5% alizarin red S solution, pH 4.0, for 5 min at room temperature. In experiments in which cultures were treated for 2, 4 or 6 days, retinoid treatments were initiated so that all cultures (including control cultures) were harvested simultaneously.”

[7] = system: caudal sternal chondrocytes; test: Cultured immature caudal sternal chondrocytes, Northern blot of type X collagen; type: cell-based, chick
Protocol: as §1, with “41-5253.” for “41-5253. Stock solutions of these retinoids were prepared in DMSO and were diluted into working solutions in 95% ethanol; control dishes received an equivalent amount of vehicle without retinoids. To analyze mineralization, cephalic sternal control and retinoid-treated cultures were supplemented with 3 mM β-glycerophosphate to serve as a phosphate source. During these various regimens, medium was changed daily. To localize calcium deposits, the cell layers were stained with 0.5% alizarin red S solution, pH 4.0, for 5 min at room temperature. In experiments in which cultures were treated for 2, 4 or 6 days, retinoid treatments were initiated so that all cultures (including control cultures) were harvested simultaneously.”

[8] = system: RARE/β-galactosidase reporter construct in F9 teratocarcinoma cell line; settings: cited from earlier work
[9] = beads implanted Day 5.5, examined Day 8.5

## CC1=C(/C=C/C(C)=C\C=C\C(C)=C\C(=O)O)C(C)(C)CCC1 [9-cis-RA]
[1]; F9 reporter cells, unpublished observations
  efficiency of stimulating transcription, fold lower than all-trans-RA: 10 fold

## Cc1ccc(C2=CCC(C)(C)c3ccc(C#Cc4ccc(C(=O)O)cc4)cc32)cc1 [AGN 109]
RARγ [2]
  IC50: 0.005 µM
[3]; 3-4 beads implanted Day 5.5 (stage 28), examined Day 8.5
  embryos with inhibited humerus development: 6/7
[3]; bead implanted at early stage, Day 10 humeri
  chondrocyte maturation and endochondral ossification in treated humerus (histology, in situ hybridization): chondrocyte maturation and long bone development are interrupted
[3]; bead implanted stage 21-22, Day 10
  concentration required for high frequency of humeral defects, relative to Ro 41-5253: much lower concentrations
[3]; [9]
  hypertrophy and RARγ / type X collagen transcripts in treated humeri: had not advanced to the hypertrophic stage and lacked transcripts encoding RARγ and type X collagen
  type II collagen expression in treated humeri (cell viability and differentiated functions): very strong expression of type II collagen
[3]; beads implanted stage 28 (Day 5.5), examined Day 14
  delay of humerus development (reversibility): about 5 days
[3]; single bead implanted Day 5.5 (stage 28), examined Day 8.5 (5/5)
  inhibition of humerus development: not very effective
RARγ [4]
  fold lower IC50 for RARγ compared to Ro 41-5253: ~500 fold
RARa, β and γ
  antagonism across RAR isotypes (selectivity in words): inhibits equally well RARa, β and γ

## CCCCCCCOc1cc2c(cc1/C(C)=C/c1ccc(C(=O)O)cc1)C(C)(C)CCS2(=O)=O [Ro 41-5253]
RARγ [2]
  IC50: 3.3 µM
[5]; antagonist alone
  alkaline phosphatase and type X collagen gene expression, antagonist alone: no major effects
[5]; co-treatment with 50 nM all-trans-RA, Ro 41-5253 at 500 nM
  effect on all-trans-RA responses of alkaline phosphatase and type X collagen genes: counteracted
[3]; bead implanted stage 21-22, Day 10 embryos
  humerus shortening versus control contralateral humerus: about 50%
[6]; 500 nM with 25 or 50 nM all-trans-RA
  mineralization on co-treatment with all-trans-RA: almost no mineralization
[6]; antagonist alone
  mineralization, antagonist alone: had no effects
[7]; antagonist alone
  type X collagen transcripts, antagonist alone: did not have major effects
[7]; co-treatment 500 nM with 50 nM all-trans-RA
  effect on all-trans-RA-induced increase in type X collagen transcripts: significantly, though not totally, blocked
RARa, β and γ
  antagonism across RAR isotypes (selectivity in words): antagonistic effects on all RAR isoforms but preferentially on RARa

## CC1=C(/C=C/C(C)=C/C=C/C(C)=C/C(=O)O)C(C)(C)CCC1 [all-trans-RA]
[5]; 50 nM
  alkaline phosphatase gene expression: increased dramatically
[5]; 50 nM, 6 days of treatment
  type X collagen expression: essentially eliminated
[1]; 3 nM, 24 hr, positive control
  β-galactosidase reporter response (histochemical): positive
[8]
  lowest exogenous concentration to which reporter cells are very sensitive (high expression of β-gal): 10 pM
[6]; 25 or 50 nM, with β-glycerophosphate
  mineral deposition (alizarin red): abundant alizarin red-stainable mineral
[7]; 50 nM, 2, 4 or 6 days
  type X collagen transcripts: marked time-dependent increase
